Experiment [1] has as its target T1, GTPase KRas (Homo sapiens, UniProt P01116, G12C). Briefly: Inhibition of KRAS G12C mutant in human MIAPaCa2 cells assessed as increase in accumulation of GDP bound KRAS G12C mutant protein incubated for 6 hrs. The experiment is classed as cell-based.
The target of experiment [2] is T1, GTPase KRas. The experiment in a line: Inhibition of KRAS G12C mutant in human NCI-H358 cells assessed as increase in accumulation of GDP bound KRAS G12C mutant protein incubated for 6 hrs. The experiment is classed as cell-based.

T1 sequence (P01116 whole entry G12C): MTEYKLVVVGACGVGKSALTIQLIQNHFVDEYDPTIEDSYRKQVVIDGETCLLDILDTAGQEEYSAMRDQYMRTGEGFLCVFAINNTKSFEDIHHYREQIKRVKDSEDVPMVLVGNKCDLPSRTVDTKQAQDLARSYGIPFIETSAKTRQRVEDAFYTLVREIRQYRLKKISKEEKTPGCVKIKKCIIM

As for `C=CC(=O)N1CCN(c2ncnc3c2CCC(c2c(C)ccc4[nH]ncc24)C3)[C@@H](C)C1` (stereo partly drawn), the concentration for half-maximal inhibition (IC50) at GTPase KRas [1] is 4860 nM.

On to `C=CC(=O)N1CCN(c2nc(OC[C@H]3CCCN3C)nc3c2C[C@@H](C)[C@H](c2c(C)ccc4[nH]ncc24)C3)CC1`, for which the results for the IC50 on GTPase KRas [2] and on GTPase KRas [1] were 129 nM and 236 nM, respectively.

The record behind these values is ChEMBL document CHEMBL4364352, “Inhibitors of KRAS May Potentially Provide Effective Cancer Treatment” (ACS Med Chem Lett, 2019).
